Like-named read-outs stand apart in the source and are kept apart here.
Legend:
[1] = test system: EBC-1 cells; experiment: Annexin V-FITC/PI dual staining apoptosis assay; format: cell-based, human; details: EBC-1, 24 h; untreated group 1.42%
Method: To determine whether the observed cell death was due to physiological apoptosis, Annexin V FITC/PI dual staining assay was conducted. EBC-1cells were treated with LAH-1 at different concentrations for 24 h to examine the effect on apoptosis.
The effect of LAH-1 on EBC-1 cells apoptosis was determined by Annexin V-FITC/PI apoptosis detection kit (BD Bioscience, Cat. No. 556547). Briefly, 300,000 EBC-1 cells were seeded in 6-well plate. After treatment with or without LAH-1 for 24 h, cells were collected, stained by FITC in binding buffer preventing from light, and then labelled by PI (absin, Cat. No. abs50005-50T). The apoptotic cells were analysed by flow cytometer Cytoflex S (Beckman Coulter).

[2] = Egg-PAMPA permeability assay; format: in vitro ADME; details: incubation 4 h
Method: (§1) Having characterised LAH-1 as a potent c-Met inhibitor, the ADME properties and PK parameters were further determined. […] Additionally, Egg-PAMPA (Parallel artificial membrane permeability assay) confirmed LAH-1 as membrane permeable, with permeability rates (Pe) of 3.4 nm/s. […] Next, LAH-1 was further progressed into in vivo PK studies.
(§2) The liver microsomal stability assay, PAMPA, and CYP 450 Inhibition Assay were conducted according to the previous reported procedure.

[3] = test system: panel of 18 diversified kinases; experiment: Kinase profile against a panel of 18 kinases; details: 300 nM; including highly homologous kinases RON and Axl
[4] = In vivo pharmacokinetics; set-up: species or system SD rats
Method: as §1
PK parameters of LAH-1 was determined in SD rats (male, n = 3 per group) weighing (200–240 g), which were obtained from SpePharm (Beijing) Biotechnology Co., Ltd. Briefly, rats were fasted overnight before dosing, LAH-1 was given as a solution in 10% DMSO with 90% Saline for intravenously (5 mg/kg) and 0.1% PEG400 in 0.5% CMC-Na in water for PO (20 mg/kg). Each rat received 2 or 10 ml of the dosing solution/kg of body weight by intravenous injection and by gavage, respectively. Blood sample was collected at 0.033 (iv only), 0.083, 0.25, 0.5,1, 2, 4, 6, 8, 12 and 24 h after dosing and stored in ice (0–4 °C). Plasma was separated by centrifugation within 15 min post sampling. Levels of LAH-1 in blood were determined by 6500+ Triple Quad LC-MS/MS System (AB SCIEX LLC, CA, USA). The PK parameters were calculated with WinNonlin software using noncompartmental analysis.

[5] = Liver microsomal stability assay; format: in vitro ADME, SD rat; details: RLM
Method: as §1, §2

[6] = test system: U87MG cells; experiment: Cell proliferation assay (CCK-8); format: cell-based; details: Homo sapiens, U-87 MG, 72 h
Method: (§3) Considering increased c-Met activity has been implicated in multiple tumour cells, we evaluated the half maximal inhibitory concentration (IC50) of LAH-1 in several cancer cell lines which harbour different levels of Met genetic alteration, these include human lung squamous cell carcinoma EBC-1, human gastric cancer line Hs746T, human oesophageal adenocarcinoma cell line OE33, human small-cell lung cancer SBC-5, and human glioblastoma cell U87MG.
(§4) EBC-1, Hs746T, OE33, SBC-5, U87MG, HT-1080 cell lines were purchased from ATCC, RIKEN, ECACC or JCRB. The antiproliferative activities of LAH-1 against these cells were assessed by CCK-8 assay according to the manufacturer’s protocol. Briefly, cells were seeded in 96-well plate at different density. 3-fold serial diluted compound or DMSO control was added to each well. After 72 h incubation, CCK-8 was added and incubated for another 2 h. The optical density of each well was read by microplate reader (Biotech, Shanghai, China). IC50 values were calculated by GraphPad Prism.

[7] = test system: OE33 cells; experiment: Cell proliferation assay (CCK-8); format: cell-based; details: Homo sapiens, 72 h
Method: as §3, §4

[8] = test system: EBC-1 cells; experiment: Cell proliferation assay (CCK-8); format: cell-based; details: Homo sapiens, 72 h
Method: as §3, §4

[9] = test system: Hs746T cells; experiment: Cell proliferation assay (CCK-8); format: cell-based; details: Homo sapiens, 72 h
Method: as §3, §4

[10] = test system: SBC-5 cells; experiment: Cell proliferation assay (CCK-8); format: cell-based; details: Homo sapiens, 72 h
Method: as §3, §4

[11] = test system: WI-38 cells; experiment: Antiproliferative inhibition, normal fibroblasts; format: cell-based; details: Homo sapiens
[12] = test system: phosphorylation of c-Met, Akt, and Erk 1/2 in EBC-1 cells; experiment: Western blot of c-Met signalling; format: cell-based, human; details: 2 h treatment
Method: Based on the sensitivity of LAH-1 against six cancer cell lines, we then conducted western blot assays to confirm the effect of LAH-1 on c-Met inhibition in cancer cells, and human non-small lung cancer (NSCLC) cell EBC-1 which harbours amplified Met gene was used.
Briefly, EBC-1 cells were seeded at a density of 1.5 × 10^6 cells/well and treated with Compound LAH-1 at the indicated concentration for 2 h. DMSO-treated cells were used as control groups. The whole cellular protein was extracted and measured by BCA protein assay. Total proteins were fractionated on SDS-PAGE and then transferred onto PVDF membranes (Millipore). Membranes were blocked with 5% BSA at room temperature and then incubated overnight at 4 °C with specific primary antibodies (Phospho-Met (CST, #3077S), Met (D1C2) (CST, #8198S), Phospho-Akt (CST, #4060S), Akt (pan) (C67E7) (CST, #4691S), Phospho-p44/42 MAPK (Erk1/2) (CST, #4370S), p44/42 MAPK (Erk1/2) (137F5) (CST, #4695S)) followed by the secondary antibody. Finally, the detection was performed by the Fully Automated Chemiluminescence/Fluorescence Image Analysis Systems (Tanon 5200).

[13] = test system: EBC-1 cells; experiment: Colony formation; format: cell-based, human; details: EBC-1, 14 days treatment, especially at 20 μM
Method: (§5) To investigate the effect of LAH-1 on colony formation ability, the EBC-1 cells which harbouring Met amplification were treated with different concentrations of LAH-1. […] Considering the important role of HGF/c-Met signalling in promoting cancer cell migration and invasion, the NCI-H441 cells with elevated expression level of c-Met was used. After treatment with HGF in the presence of LAH-1, the migratory and invasive abilities of NCI-H441 cells were determined.
EBC-1 cells were trypsinized and approximately 2000 cells were plated on 6-well plates. 14 days later, visible colonies were fixed and stained with 0.1% crystal violet. The number of colonies was quantified by Image J software (Developed by National Institutes of Health). A group of >50 cells was defined as one colony. All experiments were performed in duplicate wells.

[14] = biological target: CYP2C9 (Homo sapiens, UniProt P11712); experiment: CYP450 inhibition assay; format: in vitro ADME
Method: as §1, §2

[15] = biological target: CYP2D6 (Homo sapiens, UniProt P10635); experiment: CYP450 inhibition assay; format: in vitro ADME
Method: as §1, §2

[16] = biological target: T1, CYP1A2 (Homo sapiens, UniProt P05177); experiment: CYP450 inhibition assay; format: in vitro ADME
T1 sequence (P05177 1-516): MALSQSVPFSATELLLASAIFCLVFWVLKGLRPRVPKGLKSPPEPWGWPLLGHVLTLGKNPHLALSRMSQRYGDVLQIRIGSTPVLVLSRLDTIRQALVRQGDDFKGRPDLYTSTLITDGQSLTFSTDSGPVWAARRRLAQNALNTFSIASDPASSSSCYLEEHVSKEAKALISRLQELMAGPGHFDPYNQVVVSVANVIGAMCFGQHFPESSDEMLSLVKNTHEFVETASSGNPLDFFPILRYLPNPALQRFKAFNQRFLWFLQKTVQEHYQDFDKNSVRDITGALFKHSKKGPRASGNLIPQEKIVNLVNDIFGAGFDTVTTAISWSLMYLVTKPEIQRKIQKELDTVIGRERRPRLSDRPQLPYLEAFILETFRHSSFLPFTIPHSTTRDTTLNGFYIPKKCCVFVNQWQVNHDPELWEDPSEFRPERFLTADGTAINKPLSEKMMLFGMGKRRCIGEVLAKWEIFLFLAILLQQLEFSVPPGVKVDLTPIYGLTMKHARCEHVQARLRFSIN
Method: as §1, §2

[17] = biological target: CYP2C19 (Homo sapiens, UniProt P33261); experiment: CYP450 inhibition assay; format: in vitro ADME
Method: as §1, §2

[18] = biological target: CYP3A4 (Homo sapiens, UniProt P08684); experiment: CYP450 inhibition assay; format: in vitro ADME
Method: as §1, §2

[19] = test system: HT-1080 cells; experiment: Cell proliferation assay (CCK-8); format: cell-based, human
Method: as §3, §4

[20] = test system: NCI-H441 cells; experiment: HGF-induced cell invasion (transwell); format: cell-based; details: HGF 100 ng/mL, 28 h
Method: as §5
(§6) NCI-H441 cells in log growth phase were suspended in serum-free medium at a density of 150,000 cells per well and then seeded in 24-well transwell plates ([8] μm; Corning). Designated control or LAH-1 treated cells were added to each migration or invasion chamber and incubated for 28 h. Additionally, HGF (100 ng/mL) was added to the lower well of each companion plate to attract cells from migration or invasion chamber plate inserts at the top of the companion plate. The invaded or migrated cells to the lower wells were then fixed and stained with crystal violet. Images were taken by Olympus BX51 microscope.

[21] = Liver microsomal stability assay; format: in vitro ADME, human; details: HLM
Method: as §1, §2

[22] = biological target: KDR (Homo sapiens, UniProt P35968); experiment: Kinase profile, KDR; details: 300 nM
[23] = test system: NCI-H441 cells; experiment: HGF-induced cell migration (transwell); format: cell-based; details: HGF 100 ng/mL, 28 h
Method: as §5, §6

[24] = biological target: c-Met (Homo sapiens, UniProt P08581); experiment: In vitro enzymatic assay (mobility shift assay, ATP at Km)
Method: The compound and enzyme solution were added to the assay plate and incubate at room temperature for 10 min. Then the peptide solution was added, incubate at 28 °C for specified period of time, and subsequently added the stop buffer. Data was collected on Calliper, and IC50 values were calculated from the inhibition curves.

[25] = Sprague-Dawley, rat, plasma, iv, 5 mg/kg, male SD rats
[26] = Sprague-Dawley, rat, plasma, po, 20 mg/kg, male SD rats

Chain of CYP2C19 (P33261 whole entry): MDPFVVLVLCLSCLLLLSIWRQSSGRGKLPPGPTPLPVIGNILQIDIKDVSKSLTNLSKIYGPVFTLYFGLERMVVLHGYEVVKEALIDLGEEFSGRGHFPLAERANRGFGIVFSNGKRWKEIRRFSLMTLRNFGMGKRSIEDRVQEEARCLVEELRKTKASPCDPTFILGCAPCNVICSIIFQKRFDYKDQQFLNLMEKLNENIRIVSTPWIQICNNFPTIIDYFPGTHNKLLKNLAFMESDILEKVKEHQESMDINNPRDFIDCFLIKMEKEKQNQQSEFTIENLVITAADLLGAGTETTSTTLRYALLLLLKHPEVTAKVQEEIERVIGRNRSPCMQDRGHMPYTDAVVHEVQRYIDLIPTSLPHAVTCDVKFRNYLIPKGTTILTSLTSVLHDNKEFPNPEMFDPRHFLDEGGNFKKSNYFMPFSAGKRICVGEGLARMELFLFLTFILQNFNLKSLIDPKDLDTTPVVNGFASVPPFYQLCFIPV
Chain of CYP2D6 (P10635 whole entry): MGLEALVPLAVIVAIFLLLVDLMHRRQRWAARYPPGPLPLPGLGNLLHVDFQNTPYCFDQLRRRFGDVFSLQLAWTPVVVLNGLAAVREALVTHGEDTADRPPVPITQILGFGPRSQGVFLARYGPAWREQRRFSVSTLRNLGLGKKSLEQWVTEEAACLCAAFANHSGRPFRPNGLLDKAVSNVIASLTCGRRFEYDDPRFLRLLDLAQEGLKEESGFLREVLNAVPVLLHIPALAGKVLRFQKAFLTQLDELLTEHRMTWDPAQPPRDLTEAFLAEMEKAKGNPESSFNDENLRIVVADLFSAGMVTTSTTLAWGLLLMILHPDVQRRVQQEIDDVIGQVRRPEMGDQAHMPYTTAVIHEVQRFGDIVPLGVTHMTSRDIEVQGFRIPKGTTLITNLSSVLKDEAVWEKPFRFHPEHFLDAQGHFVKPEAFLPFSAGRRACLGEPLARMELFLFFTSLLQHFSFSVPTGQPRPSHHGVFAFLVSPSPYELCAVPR
Chain of CYP3A4 (P08684 whole entry): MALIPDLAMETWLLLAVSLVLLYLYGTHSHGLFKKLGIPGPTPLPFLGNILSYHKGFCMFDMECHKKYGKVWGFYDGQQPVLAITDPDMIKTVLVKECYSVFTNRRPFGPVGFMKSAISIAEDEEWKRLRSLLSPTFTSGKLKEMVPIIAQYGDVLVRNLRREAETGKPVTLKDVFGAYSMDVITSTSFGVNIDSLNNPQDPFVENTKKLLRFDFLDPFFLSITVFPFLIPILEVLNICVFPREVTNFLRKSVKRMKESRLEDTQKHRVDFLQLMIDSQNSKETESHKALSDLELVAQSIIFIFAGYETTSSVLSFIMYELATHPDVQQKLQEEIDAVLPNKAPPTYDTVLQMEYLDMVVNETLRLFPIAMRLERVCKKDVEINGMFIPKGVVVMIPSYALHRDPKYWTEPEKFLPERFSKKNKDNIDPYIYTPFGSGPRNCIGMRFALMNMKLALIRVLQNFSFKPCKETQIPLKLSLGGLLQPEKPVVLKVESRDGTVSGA
Chain of KDR (P35968 20-1356, species assumed): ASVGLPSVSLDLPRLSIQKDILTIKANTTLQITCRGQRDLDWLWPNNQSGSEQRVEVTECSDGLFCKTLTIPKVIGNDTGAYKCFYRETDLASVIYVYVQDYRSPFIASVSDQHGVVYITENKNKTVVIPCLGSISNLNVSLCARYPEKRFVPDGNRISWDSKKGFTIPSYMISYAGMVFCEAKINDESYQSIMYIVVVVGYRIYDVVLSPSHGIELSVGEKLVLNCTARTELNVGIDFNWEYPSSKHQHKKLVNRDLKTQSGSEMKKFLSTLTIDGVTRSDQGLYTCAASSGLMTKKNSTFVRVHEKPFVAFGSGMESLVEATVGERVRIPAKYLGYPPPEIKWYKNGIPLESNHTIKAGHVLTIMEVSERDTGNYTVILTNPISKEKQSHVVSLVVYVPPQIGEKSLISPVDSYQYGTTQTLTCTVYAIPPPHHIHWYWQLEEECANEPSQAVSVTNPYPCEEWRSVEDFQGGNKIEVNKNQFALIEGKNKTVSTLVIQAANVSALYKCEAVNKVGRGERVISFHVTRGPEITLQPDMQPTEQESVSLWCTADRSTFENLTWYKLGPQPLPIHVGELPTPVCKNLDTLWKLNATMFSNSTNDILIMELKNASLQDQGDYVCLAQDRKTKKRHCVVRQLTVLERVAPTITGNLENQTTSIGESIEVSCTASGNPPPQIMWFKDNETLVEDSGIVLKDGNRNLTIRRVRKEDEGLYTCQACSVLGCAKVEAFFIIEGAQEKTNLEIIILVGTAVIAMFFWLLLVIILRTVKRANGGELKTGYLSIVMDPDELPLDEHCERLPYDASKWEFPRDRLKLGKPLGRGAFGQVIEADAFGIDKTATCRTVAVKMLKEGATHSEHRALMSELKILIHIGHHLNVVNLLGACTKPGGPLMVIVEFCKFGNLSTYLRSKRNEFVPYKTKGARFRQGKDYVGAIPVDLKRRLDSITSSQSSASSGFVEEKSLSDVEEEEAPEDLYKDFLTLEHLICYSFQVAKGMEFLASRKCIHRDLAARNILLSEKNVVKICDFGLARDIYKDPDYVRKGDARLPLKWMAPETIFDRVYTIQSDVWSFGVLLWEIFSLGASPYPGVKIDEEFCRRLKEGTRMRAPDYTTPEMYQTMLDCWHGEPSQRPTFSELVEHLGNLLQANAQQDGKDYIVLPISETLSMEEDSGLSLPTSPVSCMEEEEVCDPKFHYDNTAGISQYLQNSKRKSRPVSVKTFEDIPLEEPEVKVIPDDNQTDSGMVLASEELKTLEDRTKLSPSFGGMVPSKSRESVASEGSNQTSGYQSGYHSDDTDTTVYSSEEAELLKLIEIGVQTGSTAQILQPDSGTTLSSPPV
Chain of CYP2C9 (P11712 whole entry): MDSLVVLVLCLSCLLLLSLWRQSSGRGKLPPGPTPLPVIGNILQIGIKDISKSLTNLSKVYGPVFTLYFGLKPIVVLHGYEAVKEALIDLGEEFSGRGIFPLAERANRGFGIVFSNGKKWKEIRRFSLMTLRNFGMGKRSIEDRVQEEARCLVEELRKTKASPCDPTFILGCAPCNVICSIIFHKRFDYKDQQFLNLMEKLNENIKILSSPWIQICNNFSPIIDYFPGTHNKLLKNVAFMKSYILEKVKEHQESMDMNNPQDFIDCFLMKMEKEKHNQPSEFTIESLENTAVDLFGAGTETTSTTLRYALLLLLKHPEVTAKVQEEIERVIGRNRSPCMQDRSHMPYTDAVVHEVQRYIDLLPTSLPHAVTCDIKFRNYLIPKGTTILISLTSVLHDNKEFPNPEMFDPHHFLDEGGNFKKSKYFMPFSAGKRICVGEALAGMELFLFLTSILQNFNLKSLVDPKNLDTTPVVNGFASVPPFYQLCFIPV
Chain of c-Met (P08581 956-1390 limits assumed): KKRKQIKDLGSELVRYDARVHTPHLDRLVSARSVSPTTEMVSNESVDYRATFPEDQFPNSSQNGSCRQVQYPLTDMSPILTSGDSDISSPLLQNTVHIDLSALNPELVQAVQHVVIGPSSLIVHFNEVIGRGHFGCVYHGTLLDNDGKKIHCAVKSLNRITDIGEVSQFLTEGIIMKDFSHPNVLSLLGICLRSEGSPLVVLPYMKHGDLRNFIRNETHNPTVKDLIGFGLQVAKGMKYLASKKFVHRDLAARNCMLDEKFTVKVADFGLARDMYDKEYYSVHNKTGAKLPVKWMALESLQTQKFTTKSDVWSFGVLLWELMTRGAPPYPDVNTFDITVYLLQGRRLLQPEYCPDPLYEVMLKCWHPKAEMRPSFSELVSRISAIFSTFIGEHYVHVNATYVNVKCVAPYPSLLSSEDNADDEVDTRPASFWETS

## Cc1cc(=O)n(-c2ccc(F)cc2)nc1C(=O)Nc1ccc(Oc2ccnc(NC(=O)N3CC(O)C3)c2)c(F)c1 [LAH-1, N-(3-fluoro-4-((2-(3-hydroxyazetidine-1-carboxamido)pyridin-4-yl)oxy)phenyl)-1-(4-fluorophenyl)-4-methyl-6-oxo-1,6-dihydropyridazine-3-carboxamide]
[1]
  early apoptosis: 16.8%
[2]; 10 μM
  Permeability: Moderate
[2]; read-out: Mean Pe
  Papp at 4 h, 10 μM: 0.34 ×10⁻⁶ cm/s
[3]
  selectivity over the other 16 kinases: great selectivity
[4]; [25]
  AUC(0-inf): 16800 ng·h/mL
  Cmax: 14900 ng/mL
  clearance: 19.2 mL/min/kg
  half-life: 1.6 h
[4]; Sprague-Dawley, rat, plasma, po 20 mg/kg vs iv 5 mg/kg, male SD rats, read-out: F% (oral bioavailability)
  bioavailability: 12.2%
[4]; [26]
  AUC(0-inf): 8210 ng·h/mL
  Cmax: 4460 ng/mL
  Tmax: 0.33 h
  half-life: 2.2 h
[4]; iv, 5 mg/kg, SD rats
  plasma clearance (in words): moderate plasma clearance
[5]
  Remaining (T = 60min): 81.2%
[5]; Sprague-Dawley, rat, liver microsomes
  half-life: > 2.08 h
[5]; Sprague-Dawley, rat, liver microsomes, read-out: CL int
  microsomal CLint: < 8.6 µL/min/mg
[6]
  IC50: 15.7 µM
[7]
  IC50: 4.28 µM
[8]
  IC50: 1.15 µM
[9]
  IC50: 2.35 µM
[10]
  IC50: 16.1 µM
[11]
  inhibition at 100 µM: 34.5%
[12]
  phosphorylation level of c-Met, Akt, and Erk 1/2: dose-dependent decrease
[13]
  colony formation: significantly inhibited
[14]
  inhibition at 10 µM: 50.7%
[15]
  inhibition at 10 µM: 21.5%
[16]
  inhibition at 10 µM: 12.8%
[17]
  inhibition at 10 µM: 15.6%
[18]
  inhibition at 10 µM: 32.2%
[19]; Homo sapiens, HT-1080, 72 h, CCK-8, c-Met non-addicted cell line
  IC50: > 100 µM
[19]; cell line with low expression or activation of c-Met
  effect on HT-1080 (in words): minimal effect
[20]
  invasion of HGF-induced NCI-H441 cells: dose dependent suppressed
[21]
  Remaining (T = 60min): 88.7%
[21]; human, liver microsomes
  half-life: > 2.08 h
[21]; human, liver microsomes, read-out: CL int
  microsomal CLint: < 8.6 µL/min/mg
[22]
  inhibition on KDR: showed inhibition
[23]
  migration of HGF-induced NCI-H441 cells: dose dependent suppressed
[24]
  IC50: 0.049 µM

Source: PMC11721924, “Discovery of LAH-1 as potent c-Met inhibitor for the treatment of non-small cell lung cancer” (Journal of Enzyme Inhibition and Medicinal Chemistry, 2023)
